The values below come from PubChem BioAssay AID1996.

The structures appear in SMILES notation. ≈ marks a conversion by molar mass, not a printed value.

For the series the following is noted: buffer; pH 7.4; 200.0 µM.
As for `COC(=O)CCCNC(=O)c1ccc2[nH]c(C)c(C)c2c1`, the kinetic solubility was over 43.3 µg/mL.
For `O=C(NC1CCCC1)c1cc(COc2ccc3ncccc3c2)on1` the value was 21.2 µg/mL (≈ 62.8 µM).
Then `Cc1cc(-c2ccccc2)nc(-c2ccccc2)c1C`, with under 0.6 µg/mL; and `CC(C)(C)c1nc(N)nc(=O)[nH]1`, with 23.9 µg/mL (≈ 142 µM); and `O=C(NCc1ccccc1)/C(=C/c1ccco1)NC(=O)c1ccco1`, with over 50.5 µg/mL.
`O=C(CN1CCC(NC(=O)C2CC2)CC1)Nc1ccccc1[N+](=O)[O-]` came in with a solubility (kinetic) of 46.6 µg/mL (≈ 135 µM).
For `O=c1nc(Nc2ccccc2)oc2ccccc12` the value was 26.8 µg/mL (≈ 112 µM).
Then `Cc1ccc(S(=O)(=O)N2CC(=NN=C(N)N)C2)cc1`, with over 42.2 µg/mL; and `Cc1ccc(OCCCC(=O)NCc2ccco2)c(C)c1`, with over 43.1 µg/mL; and `CC(C)NC(=O)c1ccc(N(Cc2ccccc2)S(C)(=O)=O)cc1`, with 11.1 µg/mL (≈ 32 µM).
For `O=c1oc(-c2cccc([N+](=O)[O-])c2)nc2ccccc12` the value was 3.2 µg/mL (≈ 11.9 µM).
`Cc1ccc(S(=O)(=O)NC(=O)Nc2cccc(S(=O)(=O)N(C)C)c2)cc1` had a solubility (kinetic) of over 59.6 µg/mL.
Then `CCOC(=O)c1ccc(N2C(=O)Cc3ccccc3C2=O)cc1`, with over 46.4 µg/mL.
For `CS(=O)(=O)N1CCC(C(=O)N2CCN(Cc3ccccc3)CC2)CC1` the value was over 54.8 µg/mL; for `Cc1cccc(SCC(=O)Nc2ccc3c(c2)OCCO3)c1`, 36.4 µg/mL (≈ 115 µM); for `N#C/C=C/N1CCC(Cc2ccccc2)CC1`, 29.6 µg/mL (≈ 131 µM).
For `COc1cccc(OC)c1OC(=O)c1cnccn1`, the kinetic solubility was under 0.3 µg/mL.
In turn, `CC(=O)c1cccc(NC(=S)N2c3ccccc3CC2C)c1` (configuration not stated) had a solubility (kinetic) of 1.4 µg/mL (≈ 4.51 µM).
The compound `CCOC(=O)/C=C1\SCC(=O)N1CC(=O)Nc1cc(S(=O)(=O)N(C)C)ccc1C` displayed a kinetic solubility of 26.2 µg/mL (≈ 59.3 µM).
For `NCCCN1CCN(c2ccccc2)CC1` the value was 26.3 µg/mL (≈ 120 µM); for `CCc1ccc(S(=O)(=O)NC2CC(C)(C)NC(C)(C)C2)cc1`, 35.8 µg/mL (≈ 110 µM); for `Cc1ccc2nc(N3C(=O)CNC3=S)sc2c1`, 11.9 µg/mL (≈ 45.2 µM).
For `CCc1ccc(CN2C(=O)c3ccccc3C2C(=O)NC(C)CC)cc1` (configuration not stated) the value was 5.3 µg/mL (≈ 15.1 µM); for `O=C(Nc1ccc(Br)cc1)N1CCCC(O)C1` (configuration not stated), over 44.9 µg/mL.
For `Cc1ccc(OCCCCN2CCCCC2)c(C)c1` the value was 19.6 µg/mL (≈ 75 µM); for `O=C1CCCc2c1nc(-c1ccccc1F)n2O`, over 36.9 µg/mL.
`COc1cccc(CNC(=O)Cn2ccc([N+](=O)[O-])n2)c1`: the solubility (kinetic) was over 43.5 µg/mL.
Then `COc1ccc(CCNC(=O)c2cc(C3CC3)on2)cc1OC`, with over 47.5 µg/mL; and `CS(=O)(=O)N1CCC(C(=O)Nc2ccc(C(N)=O)cc2)CC1`, with 34.7 µg/mL (≈ 107 µM).
Then `O=C(NCc1ccc(Cl)cc1)c1ccc(N2CCCC2=O)cc1`, with 5.3 µg/mL (≈ 16.1 µM); and `COc1ccc(/C=C2\N=C(C)OC2=O)cc1OC`, with 36.9 µg/mL (≈ 149 µM); and `Cc1cc2c(cc1C)C(c1ccccc1F)CC(=O)N2` (configuration not stated), with under 0.6 µg/mL.
Regarding `COc1cc(OC)cc(C(=O)NCc2ccc3[nH]c(C)cc3c2)c1`, the solubility (kinetic) came out at 3.3 µg/mL (≈ 10.2 µM).
`O=C(COC(=O)c1ccccc1O)Nc1ncc(Cl)cc1Cl`: the solubility (kinetic) was found to be 23.5 µg/mL (≈ 68.9 µM).
For `Cc1noc(C)c1C(=O)OCC(=O)N(C)C1CCS(=O)(=O)C1` (configuration not stated) the value was over 49.6 µg/mL; for `CN1CCc2c1nc1ccccc1c2NC(=O)CN1CCCC1`, 28.9 µg/mL (≈ 93.1 µM).
Turning to `NC(=O)COc1ccc(NS(=O)(=O)Cc2ccccc2)cc1`, the kinetic solubility worked out at 46.1 µg/mL (≈ 144 µM).
For `COCCCn1c(=O)c2sccc2n(Cc2ccccc2C)c1=O` the value was over 51.7 µg/mL; for `Cl.Cn1cccc1CNCC(O)c1ccccc1` (configuration not stated), over 40 µg/mL; for `CC(C)(C)c1ccc(OCc2cnc(Cl)s2)cc1`, under 0.6 µg/mL.
For `Cc1ccc(NC(=O)CN2CCCC2c2cccn2C)c(Br)c1` (configuration not stated) the value was 11.4 µg/mL (≈ 30.3 µM).
Compound `O=C(NCc1ccc2c(c1)OCO2)c1ccc(Cl)nc1` gave a solubility (kinetic) of over 43.6 µg/mL.
Then `OC(CNC1Cc2ccccc2C1)c1ccccc1` (configuration not stated), with over 38 µg/mL; and `COc1ccc2c(c1)CC(=O)NC=C2`, with over 28.4 µg/mL.
For `N#CCCN(Cc1cccnc1)C(=S)NCc1ccco1` the value was over 45.1 µg/mL; for `CC(=O)c1cccc(NC(=O)CCC(=O)Oc2ccc(C)cc2)c1`, over 48.8 µg/mL; for `O=C1CC2c3ccccc3C1C1C(=O)N(Cc3ccccc3)C(=O)C21` (configuration not stated), over 49.7 µg/mL.
For `O=CNCc1nc2ccccc2n1CCCc1ccccc1` the value was over 44 µg/mL.
Regarding `O=C(NCc1ccccc1Cl)[C@@H]1CCCN1S(=O)(=O)c1ccc(Cl)cc1`, the kinetic solubility stood at 38.4 µg/mL (≈ 92.9 µM).
For `c1csc(-c2nc3ccccc3s2)c1` the value was 0.7 µg/mL (≈ 3.22 µM); for `CCCCN1C(C(=O)Nc2cc(C)on2)=C(O)c2ccccc2S1(=O)=O`, over 56.6 µg/mL; for `CSC1=N/C(=C/c2cccnc2)C(=O)N1Cc1ccc(Cl)cc1`, 1.1 µg/mL (≈ 3.2 µM).
